“And” between values parts separate entries of the source, which are not always exact repeats. Equal values may be shown once.
Experiments:
[1] = test system: A2780 cells; assay: MTT viability assay, parental A2780 cells, with or without PTX; format: cell-based, human; details: for Mean % Survival / % Survival (individual sample): A2780 cells; for % Survival (individual sample): single samples
Experimental: The chemotherapeutic sensitive DU145 human prostate cancer cells and the multidrug resistant sub-line, DU145-TXR, were generous gifts from Dr. Evan Keller (University of Michigan, Ann Arbor, MI). The MDR, P-gp overexpressing DU145-TXR cells were maintained under positive selection pressure by supplementing complete medium with 10 nM paclitaxel (Acros Organics, NJ). In addition to the aforementioned cell lines, the chemotherapeutic sensitive A2780 ovarian cancer cells (93112519, Sigma) and the multidrug resistant A2780-ADR (93112520, Sigma) were maintained in complete RPMI media consisting of RPMI-1640 with L-glutamine, 10% fetal bovine serum (FBS; Corning), 100 U/mL penicillin and 100 μg/mL streptomycin in a humidified incubator at 37 °C and 5% CO2. The MDR, P-gp overexpressing A2780-ADR cell line was maintained under positive selection pressure by supplementing complete medium with 100 nM doxorubicin (Fisher Scientific, NJ). The non-cancerous HFL1 (human lung fibroblast) cell line cell line was a generous gift from Dr. Robert Harrod (Southern Methodist University, Dallas, TX) and was maintained in complete F12K media consisting of F12K with 10% fetal bovine serum, 100 U/mL penicillin, and 100 µg/mL streptomycin (Gibco). Flasks and 96 well plates that were used with the non-cancerous line HFL1 were pre-treated with 0.1 mg/ml Collagen Type 1 (Gibco) and rinsed with PBS (Fisher).
Culture of the DU145, DU145-TXR, and HFL1 cell lines was performed as described in [8]. Culture of the A2780 and A2780-ADR cell lines was performed as described in [9]. MTT assays were performed as described in [8] with minor modifications. LC-MS/MS accumulation assays were performed as described in {Nanayakkara, 2018 #173} [9] with some modifications. […] The inhibitor concentration was lowered to 15 µM here, as the goal of the study was to identify compounds that were effective in reversing MDR at low concentrations, and to determine if the expanded virtual-assisted methods improved on our first-draft attempt. Compounds 56–98 were pre-screened using Resazurin cell viability assays: cells were incubated with 15 µM compound with or without 500 nM PTX for 48 hours, after which cell survival was assessed similar to [39]. Data represent the mean of two separate experiments, with n = 3 samples per experiment (n = 6 total) (S4 Table). The top performing compounds from this initial screen were re-tested with MTT viability assays against DU145-TXR cells, as described below.
MTT assays measure the reduction of yellow, water soluble 3-(4,5-dimethylthiazol-2-yl)-2,5-diphenyltetrazolium bromide (MTT) to blue, insoluble formazan crystals by cellular reductase processes in living cells. Cells were trypsinized from monolayers and seeded in complete medium in 96 well plates. Cancerous cell lines (DU145, DU145-TXR, A2780, A2780-ADR) were seeded at 3,000 cells per well in complete RPMI medium. The non-cancerous HFL1 line was seeded at 4,000 cells per well in complete F12K medium, in collagen-treated plates (Collagen Type 1, Gibco). Cells were incubated with experimental compounds for 48 hours at 37 °C and 5% CO2 in a humidified incubator. At 48 hours, MTT was added (20 µL/well of 5 mg/mL MTT in PBS) to each well. After incubation for 4 hours, the media was removed, and the formazan crystals were dissolved in 100 µL DMSO per well. Plates containing the semi-adherent A2780 or A2780-ADR lines were spun at 1400 rpm for 3 minutes prior to aspiration of media, and the addition of DMSO. Plates were shaken for 10 minutes at 500 rpm on an Orbital shaker (LabDoctor from MidSci, St Louis, MO). The absorbance was measured at 570 nm using a Bio-Tek Cytation 5 (Bio-Tek, Winooski, VT). The measured absorbance value was correlated with the number of metabolically active cells in that well, corrected for absorbance of media. […]

[2] = target: T1, P-gp (Homo sapiens, UniProt P08183); assay: LC-MS/MS intracellular accumulation assay with or without tariquidar (P-gp transport substrate test) in DU145-TXR cells; format: in vitro ADME; details: for Intracellular accumulation (normalized ratio of compound to internal standard), Trial 1, + TQR / Intracellular accumulation (normalized ratio of compound to internal standard), Trial 2, + TQR / Intracellular accumulation (normalized ratio of compound to internal standard), Trial 1, - TQR / Intracellular accumulation (normalized ratio of compound to internal standard), Trial 2, - TQR / Intracellular accumulation (normalized ratio of compound to internal standard), Trial 3, + TQR / Intracellular accumulation (normalized ratio of compound to internal standard), Trial 3, - TQR: 5 µM compound, mean ± SD, triplicate; for Intracellular accumulation (normalized ratio of compound to internal standard), Trial 1, + TQR / Intracellular accumulation (normalized ratio of compound to internal standard), Trial 2, + TQR / Intracellular accumulation (normalized ratio of compound to internal standard), Trial 3, + TQR: with 500 nM tariquidar; for Intracellular accumulation (normalized ratio of compound to internal standard), Trial 1, - TQR / Intracellular accumulation (normalized ratio of compound to internal standard), Trial 2, - TQR / Intracellular accumulation (normalized ratio of compound to internal standard), Trial 3, - TQR: without tariquidar; for P (- TQR vs + TQR), Trial 1 / P (- TQR vs + TQR), Trial 2 / P (- TQR vs + TQR), Trial 3: Student's T test of the mean
T1 construct: The MDR, P-gp overexpressing DU145-TXR cells were maintained under positive selection pressure; endogenous in cells; host or cells: DU145-TXR (paclitaxel-resistant sub-line of DU145 human prostate cancer cells)
Experimental: DU145-TXR cells were seeded at 350,000 cells per well in 6-well plates in complete RPMI medium. […] A full sample of DAU was also prepared for quantitative analysis. […] Media was removed with a glass vacuum aspirator. Cells were re-suspended and washed in 2mL of ice-cold Hank’s Balanced Salt Solution (HBSS, Gibco), and spun again at 2400 rpm. Cell lysates were diluted in 600 µL of ice-cold HBSS, flash-frozen in liquid nitrogen, and stored at −80 °C until analysis. LC-MS/MS intracellular accumulation assays were performed in collaboration with the Pharmacology Core at the University of Texas Southwestern Medical Center (UTSW). […] This method allowed us to quantify the change – if any – in the relative amount of compound present in the samples when TQR was added. An increase in the relative amount of compound indicates enhanced intracellular retention that compound. […] The “Internal Standard” (IS) is a known substance added in a constant amount to each sample. The “Peak Area”, expressed as “counts”, describes the number of MS/MS spectra from the experimental compound and serves as a measure of its relative abundance. […] These values allow a comparison of the relative abundance of compound between the “- TQR” and “+ TQR” samples, and to test for statistically significant differences. LC-MS/MS quantification was performed as follows. Cell lysate was aliquoted into Eppendorf tubes. In contrast to [9], blank cell lysates were not spiked with varying concentrations of each compound to create a standard curve, since compound amounts were normalized to abundance of the internal standard. […] The supernatant was then transferred to an HPCL vial, and subsequently analyzed using LC-MS/MS using a Sciex 4000QTRAP mass spectrometer coupled to a Shimadzu Prominence LC. […] The column flow rate was 1.5 ml/min using an Agilent C18 XDB, 5 micron packing 50 × 4.6 mm column. […] A BSA standard curve was then prepared in water and mixed using the same ratio. […] The ratio of Analyte to Internal Standard was normalized to the lysate content for each individual sample. […] Statistical significance was determined using a Student’s T Test in GraphPad Prism. We aimed to identify P-gp inhibitors that are not transport substrates of the pump itself. […] To test these predictions in vitro, liquid chromatography with tandem mass spectrometry (LC-MS/MS) was used to assess the intracellular accumulation of experimental compounds as described in [9]. […] The relative intracellular accumulation of each experimental compound was then assessed using LC-MS/MS. […] The P-gp substrate and chemotherapeutic daunorubicin (DAU) was used as a positive control for P-gp-mediated transport.

[3] = 15 µM compound + 500 nM PTX, mean of 8 or 12 samples
[4] = Homo sapiens, A2780, A2780 cells, 15 µM compound alone, mean of 8 or 12 samples, read-out: Mean % Survival
[5] = significant difference = likely P-gp transport substrate
[6] = 1 µM compound + 500 nM PTX, mean of 12 samples

T1 sequence (P08183 whole entry): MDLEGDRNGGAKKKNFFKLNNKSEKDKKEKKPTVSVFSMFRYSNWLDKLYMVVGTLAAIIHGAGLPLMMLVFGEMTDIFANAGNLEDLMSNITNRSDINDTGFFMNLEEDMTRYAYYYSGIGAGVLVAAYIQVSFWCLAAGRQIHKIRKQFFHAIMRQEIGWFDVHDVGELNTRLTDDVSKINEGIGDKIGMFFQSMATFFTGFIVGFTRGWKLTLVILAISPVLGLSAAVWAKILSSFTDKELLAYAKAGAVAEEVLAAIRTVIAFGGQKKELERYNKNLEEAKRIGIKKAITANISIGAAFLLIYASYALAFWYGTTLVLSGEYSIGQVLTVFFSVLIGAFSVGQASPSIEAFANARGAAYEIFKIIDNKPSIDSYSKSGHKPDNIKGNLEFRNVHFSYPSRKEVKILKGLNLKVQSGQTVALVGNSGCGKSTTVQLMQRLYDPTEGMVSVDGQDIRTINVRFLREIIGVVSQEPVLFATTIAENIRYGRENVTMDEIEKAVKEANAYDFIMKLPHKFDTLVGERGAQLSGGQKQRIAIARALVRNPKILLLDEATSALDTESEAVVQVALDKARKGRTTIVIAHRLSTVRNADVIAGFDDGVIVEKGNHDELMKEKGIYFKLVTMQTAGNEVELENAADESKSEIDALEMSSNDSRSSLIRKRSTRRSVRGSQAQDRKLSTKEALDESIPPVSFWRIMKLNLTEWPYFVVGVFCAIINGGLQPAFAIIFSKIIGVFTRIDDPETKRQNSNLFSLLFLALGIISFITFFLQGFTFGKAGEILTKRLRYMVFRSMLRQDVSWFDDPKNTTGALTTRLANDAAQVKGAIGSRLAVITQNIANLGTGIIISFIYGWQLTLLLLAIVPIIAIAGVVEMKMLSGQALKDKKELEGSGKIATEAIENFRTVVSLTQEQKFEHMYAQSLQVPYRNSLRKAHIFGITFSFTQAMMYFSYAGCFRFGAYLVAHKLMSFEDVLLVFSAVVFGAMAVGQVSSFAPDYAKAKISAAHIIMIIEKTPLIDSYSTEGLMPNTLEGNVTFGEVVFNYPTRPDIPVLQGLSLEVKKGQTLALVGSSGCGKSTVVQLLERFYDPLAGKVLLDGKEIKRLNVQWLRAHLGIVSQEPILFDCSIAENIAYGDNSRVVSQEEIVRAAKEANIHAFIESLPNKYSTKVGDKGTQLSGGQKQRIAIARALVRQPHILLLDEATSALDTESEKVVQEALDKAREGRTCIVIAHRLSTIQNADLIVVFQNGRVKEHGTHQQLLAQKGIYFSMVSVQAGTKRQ

Row | Compound | Mean % Survival [1, 3] | % Survival (individual sample) ([1]; 15 µM compound + 500 nM PTX) | viability at 15 µM [1, 4] | Intracellular accumulation (normalized ratio of compound to internal standard), Trial 1, + TQR ([2]; DU145-TXR, 2.5 h) | Intracellular accumulation (normalized ratio of compound to internal standard), Trial 2, + TQR ([2]; DU145-TXR, 2.5 h) | Intracellular accumulation (normalized ratio of compound to internal standard), Trial 1, - TQR ([2]; DU145-TXR, 2.5 h) | Intracellular accumulation (normalized ratio of compound to internal standard), Trial 2, - TQR ([2]; DU145-TXR, 2.5 h) | P (- TQR vs + TQR), Trial 1 [2] | P (- TQR vs + TQR), Trial 2 [2] | also measured
1 | Cn1cnnc1SCc1c(C(=O)O)nnn1-c1nonc1N [Compound 59, Cn1cnnc1SCc1c(nnn1-c1nonc1N)C(O)=O] | 11.4% | 6% and 9% | 99% |  |  |  |  |  |  | 
2 | Nc1nonc1-n1nnc(C(=O)N/N=C/c2c3ccccc3cc3ccccc23)c1COc1ccc(F)cc1 [Compound 60, Nc1nonc1-n1nnc(C(=O)N\N=C\c2c3ccccc3cc3ccccc23)c1COc1ccc(F)cc1] |  |  |  | 0.282 ± 0.010 | 0.250 ± 0.003 | 0.231 ± 0.165 | 0.250 ± 0.003 | 0.6 | > 1 | 
3 | CCN1CCN(Cc2c(C(=O)N/N=C3/C(=O)N(C)c4ccccc43)nnn2-c2nonc2N)CC1 [Compound 61, CCN1CCN(Cc2c(nnn2-c2nonc2N)C(=O)N\N=C2\C(=O)N(C)c3ccccc23)CC1] |  |  |  | 0.076 ± 0.001 | 0.027 ± 0.011 | 0.023 ± 0.002 | 0.016 ± 0.006 | 2 x 10^-6 | 0.2 | Intracellular accumulation (normalized ratio of compound to internal standard), Trial 3, + TQR ([2]; DU145-TXR, 2.5 h): 0.126 ± 0.010; Intracellular accumulation (normalized ratio of compound to internal standard), Trial 3, - TQR ([2]; DU145-TXR, 2.5 h): 0.021 ± 0.004; P (- TQR vs + TQR), Trial 3 [2]: 0.0001
4 | O=C(c1cc2ccccc2[nH]1)N1CCN(S(=O)(=O)c2cccc3nonc23)CC1 [Compound 66, O=C(N1CCN(CC1)S(=O)(=O)c1cccc2nonc12)c1cc2ccccc2[nH]1] |  |  |  | 0.833 ± 0.124 | 0.036 ± 0.005 | 0.747 ± 0.096 | 0.040 ± 0.001 | 0.4 | 0.2 | Intracellular accumulation (normalized ratio of compound to internal standard), Trial 3, + TQR ([2]; DU145-TXR, 2.5 h): 0.140 ± 0.029; Intracellular accumulation (normalized ratio of compound to internal standard), Trial 3, - TQR ([2]; DU145-TXR, 2.5 h): 0.170 ± 0.039; P (- TQR vs + TQR), Trial 3 [2]: 0.3
5 | O=C(c1nc(-c2ccc3cc[nH]c3c2)no1)N1CCN(c2nsc3ccccc23)CC1 [Compound 70, O=C(N1CCN(CC1)c1nsc2ccccc12)c1nc(no1)-c1ccc2cc[nH]c2c1] | 22.6% | 14% | 89.4% | 0.93 ± 0.07 | 0.55 ± 0.15 | 0.93 ± 0.15 | 0.56 ± 0.11 | > 1 | 0.9 | P-gp transport substrate assessment ([2]; DU145-TXR, 5 µM compound with or without 500 nM tariquidar, 2.5 h, LC-MS/MS): unlikely to be transport substrates of P-gp; Significance of accumulation with tariquidar, Trial 1 [2, 5]: N.S. (P > 0.05 = not significant (N.S.)); Significance of accumulation with tariquidar, Trial 2 [2, 5]: N.S. (P > 0.05 = not significant (N.S.)); Increase of PTX toxicity against parental A2780 cells ([1]; 15 µM compound with or without 500 nM PTX, 48 h, MTT): did not greatly increase the toxicity of PTX against the parental A2780 cells; % Survival (individual sample) ([1]; 15 µM compound alone): 88%
6 | COc1ccc(OC)c(NC(=O)c2nnn(-c3ccc4noc(-c5ccccc5)c4c3)c2C)c1 [Compound 71, COc1ccc(OC)c(NC(=O)c2nnn(c2C)-c2ccc3noc(-c4ccccc4)c3c2)c1] |  |  |  | 0.067 ± 0.005 | 0.091 ± 0.043 | 0.085 ± 0.013 | 0.071 ± 0.009 | 0.09 | 0.5 | 
7 | NS(=O)(=O)c1cccc(NC(=O)CSc2nnnn2C2CC2)c1 [Compound 89, NS(=O)(=O)c1cccc(NC(=O)CSc2nnnn2C2CC2)c1] | 10.3% | 8% and 12% | 87.9% |  |  |  |  |  |  | % Survival (individual sample) ([1]; 15 µM compound alone): 96%
8 | COc1ccc2c3c([nH]c2c1)[C@H](CC(C)C)N1C(=O)[C@H](CCC(=O)OC(C)(C)C)NC(=O)[C@@H]1C3 [Ko143, reference compound] |  |  |  |  |  |  |  |  |  | Mean % Survival [1, 6]: 12.8%; % Survival (individual sample) ([1]; 1 µM compound + 500 nM PTX): 16% and 15% and 9% and 49% and 7% and 8% and 10%; % Survival (individual sample) ([1]; 1 µM compound alone): 88% and 85% and 84% and 87% and 89% and 40% and 99% and 90% and 97% and 92%; Mean % Survival ([1]; mean of 12 samples): 85.3%
9 | COc1cc2c(cc1OC)CN(CCc1ccc(NC(=O)c3cc(OC)c(OC)cc3NC(=O)c3cnc4ccccc4c3)cc1)CC2 [Tariquidar, reference compound] |  |  |  |  |  |  |  |  |  | Mean % Survival [1, 6]: 17.8%; % Survival (individual sample) ([1]; 1 µM compound + 500 nM PTX, listed as TQR): 12%; viability at 1 µM ([1]; Homo sapiens, A2780, A2780 cells, 1 µM compound alone, mean of 12 samples, read-out: Mean % Survival): 106%

Source: publication PMC12349723, “Computationally accelerated identification of P-glycoprotein inhibitors” (PLOS One, 2025)
